Measurements reported in patent US20240166683A1, “CHEMICAL TOOLS FOR RNA 3D STRUCTURE DETERMINATION IN VIVO” (UNIVERSITY OF SOUTHERN CALIFORNIA, priority 2022, published 2024).

Legend:
model RNA 1 = experiment: In vitro crosslinking of model RNA 1 duplex, measured by polyacrylamide electrophoresis; format: biochemical; settings: 100 mM activated dicarboxylic acid, 10 μM model RNA 1, MOPS pH 7.5, 4 h at room temperature, PAGE
Protocol: All experiments were performed in triplicate.
Source data are provided as a Source Data file.

[1] = Hydrolysis in borate buffer/DMSO at pH 10.0, monitored by 1H NMR; format: physicochemical
From the text: Reversing 2′-hydroxyl crosslinking under mild alkaline conditions without RNA damage. Reversal of the crosslinks is necessary for subsequent sequence analysis. We hypothesized that the lower stability of the 2′-acylation products relative to the phosphodiester bonds could allow selective crosslink reversal without causing RNA chain breaks. To test this, we first analyzed the rate of phosphodiester cleavage in a model RNA dinucleotide ApA (FIG. 1f). We compared it to the methyl ester of dipicolinic acid 2 (FIG. 1g), a simple ester derivative of the SHARC reagent DPI. The two compounds were incubated in a 3:1 mixture of 100 mM borate buffer and DMSO at pH 10.0, and the stability was monitored over time by ^1H NMR (FIG. 1h). […] In contrast, compound 2 was fully hydrolyzed after ˜120 min, with a rate constant of 3.5*10^−4 (FIG. 1g). From this we concluded that the ˜1000-fold difference in rate constant should provide sufficient opportunity to selectively reverse the crosslinks under mild alkaline conditions without RNA damage.
(§1) a, Minimal and maximal possible lengths between the crosslinked 2′ oxygen groups in RNA, estimated in PyMOL. Hydroxyl groups are represented by the green oxygen atoms. […] The three lanes represent triplicate experiments. c, Reaction scheme of hydrolysis reaction of DPI. d, Hydrolysis of DPI in phosphate buffer pH 7.4 analyzed by NMR spectroscopy over time. e, Formation of hydrolyzed DPI products over time. After ˜30 min all DPI has been hydrolyzed. f, Hydrolysis of ApA in 100 mM borate buffer pH 10.0 analyzed by NMR spectroscopy over time. g, Formation of hydrolyzed ApA products over time, based on quantification of panel f. […] The three lanes represent triplicate experiments. i, An increase in crosslink reversal (=decrease in crosslinked RNA) is observed at increased pH and temperature, based on quantification of gel pictures in panel h. […]

[2] = Hydrolysis of the acylating reagent at physiological pH, measured by NMR; format: physicochemical
Protocol: We activated a set of eight dicarboxylic acids with diverse linker lengths and chemical properties (FIG. 1e). The efficiency of crosslinking RNA 1 was measured by polyacrylamide electrophoresis (FIG. 1e). […] This can be potentially explained by the inductive effect of the beta oxygen that substantially increases the reactivity of the activated ester, making it more susceptible to hydrolysis.
as §1

HEK293 cells = experiment: In-cell SHARC crosslinking, recovery of crosslinked RNA fragments from DD2D gel; format: cell-based, human; settings: HEK293 cells, 5, 12.5, or 25 mM DPI, RNase III fragmentation
Protocol: SHARC-exo accurately measures static and dynamic spatial distances in RNA in cells. To test SHARC-exo, we first crosslinked HEK293 cells with DPI, fragmented RNA with RNase III, and isolated the crosslinked fragments using the DD2D gel method. We recovered 1-2% RNA fragments as crosslinked using 5, 12.5, or 25 mM DPI. We sequenced the SHARC-exo libraries and observed 3.3-14.5% of the reads are gapped, similar to PARIS. Crosslinked reads are highly reproducible at different DPI concentrations.
In vivo crosslinking. Hela and HEK293T cells with 80% confluency in a 10 cm dish were washed twice with 1× phosphate-buffered saline (PBS). […]
a, RNase R reduces arm length in PARIS-exo. b, RNase R trimming leads to enrichment of U at the 5th nucleotide from the 3′ end. c-e, An example of precise crosslink site identification using PARIS-exo. c, vertical lines indicate the 3′ ends (median) from PARIS and PARIS-exo reads. d, The PARIS-exo derived 3′ ends and crosslinking sites are mapped to the H79 and ES31 of human 28S secondary structure. e, cryo-EM structure of H79 and ES31 (PDB: 4V6X). f, HEK293 cells are crosslinked with DPI at different concentrations. […] The smear above the diagonal represents crosslinked RNA. h, Quantification of the recovery of crosslinked RNA fragments from the DD2D gel system (replicates n=9, 16 and 4 for the 3 conditions, respectively). […]

[3] = 3:1 100 mM borate buffer/DMSO, pH 10.0, 5 mM starting concentration

In the case of `O=C(CCCC(=O)n1ccnc1)n1ccnc1` [Activated glutaric acid], the “crosslinking efficiency of RNA 1” value (model RNA 1) is reported as 94%.

With `O=C(COCC(=O)n1ccnc1)n1ccnc1` [Activated diglycolic acid] the “crosslinking efficiency of RNA 1” value (model RNA 1) was 27%.

In the case of `COC(=O)c1cccc(C(=O)OC)n1` [compound 2, methyl ester of dipicolinic acid], the “rate constant of hydrolysis” value [1, 3] is reported as 3.5*10^−4, the “time to full hydrolysis” value [1, 3] is reported as roughly 120 min and the “difference in rate constant, compound 2 vs ApA” value ([1]; pH 10.0) is reported as roughly 1000 fold.

With `O=C(c1cccc(C(=O)n2ccnc2)n1)n1ccnc1` [DPI, dipicolinic acid imidazolide] the “time after which all DPI has been hydrolyzed” value ([2]; phosphate buffer pH 7.4, NMR) was roughly 30 min, the “time after which 50% was hydrolyzed” value ([2]; physiological pH 7.4, room temperature, NMR) was 5 min and the “RNA fragments recovered as crosslinked” value (HEK293 cells) was 1-2%.
